Laboratory results reported in patent publication US4752606A, “Pharmaceutical compositions and preparations thereof” (501 Noristan Limited, priority 1982, dated 1988).
Counter-ions that a name gives are not always drawn.

How the values were obtained:
[1] = Anti-inflammatory effect: carrageenan induced rat paw oedema; type: in vivo
Procedure: The compounds (aspirin and oleanolic acid) were administered orally.

[2] = Analgesic effect of aspirin in the presence of oleanolic acid; type: in vivo, rats; details: Rattus norvegicus, read-out: ED50 (analgesic effect)
Procedure: The analgesic effect of the compound was tested in oral application to rats. 45 Minutes after application of the compound, the rats received an intraperitoneal injection of 1.0 ml 1% acetic acid. This causes a series of characteristic spasms in the untreated control animals. Analgesic effects are indicated by the reduction of the frequency of these spasms. The following results were obtained with the compound:
Measurement of the analgesic effect of the test compounds was done as set out in Test 1. The ED50 was computed for the various treatments as follows: […]

[3] = Antithrombotic effect: pulmonary thrombo-embolism in animals treated with arachnidoic acid; type: in vivo; details: for effect on occurrence of pulmonary thrombo-embolism: animals treated with arachnidoic acid
Excerpt: Oleanolic acid has no effect in this regard.

[4] = Acute toxicity of aspirin with and without oleanolic acid; type: in vivo; details: mouse, in vivo, po, mice, mixture 1:1 mass ratio
mice [5] = experiment: as above; type: in vivo; details: oral, males, mixture 1:1 mass ratio
[6] = Healing effect on chemically induced ulceration (acetic acid); type: in vivo, rats; details: 100 mg/kg per os twice daily, days 1-10; day 11; vs untreated control
Procedure: Ulceration was induced by injecting 30% acetic acid into the stomach of the animals on day zero. From day one onwards to day 10 the animals were treated twice daily with the protective compound (100 mg/kg; per os). On day 11 the extent of gastric damage was determined.

[7] = Gastric damage (HCl - Gastrin ulcer) caused by tetragastrin; type: in vivo, rats; details: 100 mg/kg/treatment per os twice daily, days 1-14; tetragastrin 100 μg/kg/day i.p.; day 15; vs untreated control
Procedure: Each animal was treated with hydrochloric acid (0,2 ml of a 20% solution; per os) on day zero. From day one onwards to day 14 the animals were treated once daily with tetragastrin (100 μg/kg/day; intraperitoneal injection) and twice daily with the protective compound (100 mg/kg/treatment; per os in tragacanth). On day 15 the extent of gastric damage was determined.

[8] = Effect on gastric damage caused by aspirin; type: in vivo, rats; details: aspirin approximately 550 mg/kg
Procedure: (§1) Gastric damage caused by irritant substances (e.g. aspirin, indomethacin or other acidic analgesic/anti-inflammatory drugs) is assessed by applying a suitable dose of the protective compound followed later by a relatively high dose of the irritant (in the case of aspirin, approximately 550 mg/kg). After a further 5 hours, the extent of gastric damage is determined.

mice [9] = experiment: Acute toxicity of oleanolic acid; type: in vivo; details: oral route
[10] = Analgesic activity (acetic acid induced spasms); type: in vivo; details: rats; for Average No. of spasms (25 mins): untreated control 43.75
Procedure: The analgesic effect of the compound was tested in oral application to rats. 45 Minutes after application of the compound, the rats received an intraperitoneal injection of 1.0 ml 1% acetic acid. This causes a series of characteristic spasms in the untreated control animals. Analgesic effects are indicated by the reduction of the frequency of these spasms. The following results were obtained with the compound: […]

[11] = Gastric damage caused by reserpine; type: in vivo, rats; details: 100 mg/kg per os; reserpine 6 mg/kg s.c.; after 16 hours; vs untreated control
Procedure: The animals were treated with oleanolic acid (per os; tragacanth vehicle) and directly thereafter with reserpine (6 mg/kg; subcutaneous injection). After 16 hours the extent of gastic damage was determined.

[12] = Effect on gastric damage caused by indomethacin; type: in vivo, rats
Procedure: as §1

[13] = Healing effect on thermally induced ulceration; type: in vivo, rats; details: 100 mg/kg per os twice daily, days 1-13; day 14; vs untreated control
Procedure: Thermal stomach ulceration was induced on day zero by means of a heated (75° C.) stainless steel stamp (5 mm in diameter). From day one onwards to day 13 the animals were treated twice daily with oleanolic acid (100 mg/kg; per os in tragacanth). On day 14 the animals were examined for the extent of gastric damage.

[14] = mice; Shibata 1981, p. 65; cited from earlier work
[15] = Activity against stress induced ulcers; type: in vivo; details: 100 mg/kg, rats, 24 h plaster bandage; drug 1 h before and 6 h after
Procedure: The effect of compounds on this formation of stress ulcers is assessed by applying the drugs 1 hour before encasing the animals in the bandage and again 6 hours after encasing the animals. After 24 hours, the bandage is removed and gastric damage is assessed compared to that of untreated animals.

[16] = oral; British Pat. No. 1,251,976, Example 10; cited from earlier work

CC(=O)Oc1ccccc1C(=O)O [Aspirin]
% inhibition of swelling ([1]; aspirin 25 mg/kg oral (combination: plus oleanolic acid 25 mg/kg), 1.5 hrs): 12%
% inhibition of swelling ([1]; aspirin 25 mg/kg oral (combination: plus oleanolic acid 25 mg/kg), 3 hrs): 17%
% inhibition of swelling ([1]; aspirin 25 mg/kg oral (combination: plus oleanolic acid 25 mg/kg), 4.5 hrs): 11%
% inhibition of swelling ([1]; aspirin 25 mg/kg oral (combination: plus oleanolic acid 25 mg/kg), 6 hrs): 18%
% inhibition of swelling ([1]; aspirin 50 mg/kg oral (combination: plus oleanolic acid 50 mg/kg), 1.5 hrs): 18%
% inhibition of swelling ([1]; aspirin 50 mg/kg oral (combination: plus oleanolic acid 50 mg/kg), 3 hrs): 32%
% inhibition of swelling ([1]; aspirin 50 mg/kg oral (combination: plus oleanolic acid 50 mg/kg), 4.5 hrs): 17%
% inhibition of swelling ([1]; aspirin 50 mg/kg oral (combination: plus oleanolic acid 50 mg/kg), 6 hrs): 16%
% inhibition of swelling ([1]; aspirin 100 mg/kg oral (combination: plus oleanolic acid 100 mg/kg), 1.5 hrs): 30%
% inhibition of swelling ([1]; aspirin 100 mg/kg oral (combination: plus oleanolic acid 100 mg/kg), 3 hrs): 42%
% inhibition of swelling ([1]; aspirin 100 mg/kg oral (combination: plus oleanolic acid 100 mg/kg), 4.5 hrs): 32%
% inhibition of swelling ([1]; aspirin 100 mg/kg oral (combination: plus oleanolic acid 100 mg/kg), 6 hrs): 23%
% inhibition of swelling ([1]; aspirin 200 mg/kg oral (combination: plus oleanolic acid 200 mg/kg), 1.5 hrs): 45%
% inhibition of swelling ([1]; aspirin 200 mg/kg oral (combination: plus oleanolic acid 200 mg/kg), 3 hrs): 52%
% inhibition of swelling ([1]; aspirin 200 mg/kg oral (combination: plus oleanolic acid 200 mg/kg), 4.5 hrs): 34%
% inhibition of swelling ([1]; aspirin 200 mg/kg oral (combination: plus oleanolic acid 200 mg/kg), 6 hrs): 30%
ED50 ([2]; po): 22.3 mg/kg
effect on occurrence of pulmonary thrombo-embolism [3]: inhibits the occurrence
ED50 ([3]; read-out: ED50 (antithrombotic effect)): 41 mg/kg
LD50 ([4]; combined): 1800 mg/kg
LD50 ([4]; females): 2100 mg/kg
LD50 (mice [5]): 1110 mg/kg

CC1(C)[C@@H](OC(=O)CCC(=O)O)CC[C@]2(C)[C@H]3C(=O)C=C4[C@@H]5C[C@@](C)(C(=O)O)CC[C@]5(C)CC[C@@]4(C)[C@]3(C)CC[C@@H]12 [Carbenoxolone sodium, disodium salt of the hemisuccinate of glycyrrhetinic acid, reference compound]
reduction of gastric damage (acetic acid ulceration) [6]: 42%

CN/C(=N/CCSCc1nc[nH]c1C)NC#N [Cimetidine, reference compound]
inhibition of gastric damage (HCl - Gastrin ulcer) [7]: 41%

CC1(C)CC[C@]2(C(=O)O)CC[C@]3(C)C(=CC[C@@H]4[C@@]5(C)CC[C@H](O)C(C)(C)[C@@H]5CC[C@]43C)[C@@H]2C1 [Oleanolic acid, oleanolic acid]
Percentage inhibition of Aspirin induced gastric damage ([8]; 30 mg/kg): 28%
Percentage inhibition of Aspirin induced gastric damage ([8]; 100 mg/kg): 49%
Percentage inhibition of Aspirin induced gastric damage ([8]; 300 mg/kg): 69%
doses that did not cause any deaths (mice [9]): up to 4000 mg/kg
% Inhibition of spasms ([10]; 10 mg/kg oral): 8.6%
Average No. of spasms (25 mins) ([10]; 10 mg/kg oral): 40.0
% Inhibition of spasms ([10]; 31.6 mg/kg oral): 49.4%
Average No. of spasms (25 mins) ([10]; 31.6 mg/kg oral): 22.12
% Inhibition of spasms ([10]; 100 mg/kg oral): 65.7%
Average No. of spasms (25 mins) ([10]; 100 mg/kg oral): 15.10
ED50 ([2]; rats, oral, acetic acid spasms): 55.8 mg/kg
inhibition of reserpine induced gastric damage [11]: 25%
inhibition of gastric damage (HCl - Gastrin ulcer) [7]: about 49%
Percentage inhibition of Indomethacin induced gastric damage ([12]; 10 mg/kg): 61%
Percentage inhibition of Indomethacin induced gastric damage ([12]; 30 mg/kg): 66%
Percentage inhibition of Indomethacin induced gastric damage ([12]; 100 mg/kg): 80%
Percentage inhibition of Indomethacin induced gastric damage ([12]; 300 mg/kg): 86%
reduction of gastric damage (thermal ulceration) [13]: 59%
inhibiting activity against stress-induced ulceration [14]: non-significant, if any, inhibiting activity
inhibition of the mean total ulceration score [15]: 83.5%
reduction in ulceration (glucose induced) [16]: 8%
effect on occurrence of pulmonary thrombo-embolism [3]: no effect
reduction of gastric damage (acetic acid ulceration) [6]: 73%

CC1(C)CC[C@]2(C(=O)O)CC[C@]3(C)C(=CC[C@@H]4[C@@]5(C)CC[C@H](O)C(C)(C)[C@@H]5CC[C@]43C)[C@@H]2C1 [Sodium oleanolate]
Percentage inhibition of Aspirin induced gastric damage ([8]; 30 mg/kg): 1%
Percentage inhibition of Aspirin induced gastric damage ([8]; 100 mg/kg): 30%
Percentage inhibition of Aspirin induced gastric damage ([8]; 300 mg/kg): 47%

CC1(C)[C@@H](O)CC[C@]2(C)[C@H]3CC=C4[C@@H]5C[C@@](C)(CO)CC[C@]5(C)CC[C@@]4(C)[C@]3(C)CC[C@@H]12 [olean-12-en-3β, 30-diol, reference compound]
inhibiting activity against stress-induced ulceration [14]: promising inhibiting activity
